Like-named read-outs stand apart in the source and are kept apart here.
Key:
[1] = system: hypothermic effect caused by reserpine; experiment: reserpine-antagonism, elimination of the hypothermic effect caused by reserpine; assay type: in vivo; conditions: Mus musculus, mice, oral, 17 hours after 2 mg/kg i.p. reserpine
Procedure: A further test for determining the anti-depressant activity is the reserpine-antagonism, the elimination of the hypothermic effect caused by reserpine. The test is carried out on mice, using 5 animals per dose. 17 Hours after i.p. administration of 2 mg/kg of reserpine, the body temperature is measured peripherally at a room temperature of 19° C. Afterwards, the test substance is administered orally, and the body temperature is measured after elapse of 1, 3, 5, and 7 hours. For each measurement a medium effective dose (ED50) is determined. This is the dose at which the body temperature of the animals treated with reserpine approaches the normal temperature of the untreated controls by 50%.

[2] = system: uptake of serotonine in the neurons; experiment: inhibition of serotonine uptake, synaptosomes from homogenized isolated cerebrum of the rat; assay type: biochemical; conditions: ten minutes at 37° C., 50% uptake inhibition, read-out: Serotinine inhibition IC 50
Procedure: (§1) It is known that various forms of depressions cause in certain sections of the brain a deficiency of biogenetic amines, especially of noradrenaline and serotonine; the biogenetic amines may be multiplied by inhibiting the uptake in the neurons. […] The test is performed on the homogenized, isolated cerebrum of the rat. A suspension of synaptosomes thus obtained is incubated with […] noradrenaline or serotonine and various concentrations of a solution of the test substance in water for ten minutes at 37° C. After completion of the incubation, the medium is separated by filtering, and the radioactivity of the suspension of synaptosomes is measured. A control test without test substance is made simultaneously in order to determine the quantity of uptake of the radioactive amines. The quantity of the test substance in mols which suffices for inhibiting 50% of the uptake is designated as IC 50.

[3] = system: uptake of noradrenaline in the neurons; experiment: inhibition of noradrenaline uptake, synaptosomes from homogenized isolated cerebrum of the rat; assay type: biochemical; conditions: ten minutes at 37° C., 50% uptake inhibition, read-out: Noradrenalin inhibition IC 50
Procedure: as §1

[4] = 1 hr., read-out: Reserpine antagonism ED50 after 1 hr.
[5] = 3 hrs., read-out: Reserpine antagonism ED50 after 3 hrs.
[6] = 5 hrs., read-out: Reserpine antagonism ED50 after 5 hrs.
[7] = 7 hrs., read-out: Reserpine antagonism ED50 after 7 hrs.

Row | IC50 [2] [µM] | IC50 [3] [nM] | SMILES | ED50 [1, 4] [mg/kg] | ED50 [1, 5] [mg/kg] | ED50 [1, 6] [mg/kg] | ED50 [1, 7] [mg/kg]
1 | > 10 | 1400 | CN1Cc2sc(Cl)cc2C(c2ccccc2)C1.Cl (stereo not drawn) [2-Chloro-4-phenyl-6-methyl-4,5,6,7-tetrahydro-thieno[2,3-c]pyridine hydrochloride] | 13 | 30 | 90 | 90
2 | 5.4 | 1600 | CN1Cc2sc(Cl)cc2C(c2ccc(Cl)cc2)C1.Cl (stereo not drawn) [2-Chloro-4-(p-chloro-phenyl)-6-methyl-4,5,6,7-tetrahydro-thieno[2,3-c]pyridine hydrochloride] | 16 | 8.5 | 9.5 | 10
3 | > 10 | 900 | Cc1ccc(C2CN(C)Cc3sc(Cl)cc32)cc1.Cl (stereo not drawn) [2-chloro-4-(p-tolyl)-6-methyl-4,5,6,7-tetrahydro-thieno[2,3-c] pyridine hydrochloride] | 44 | 12.5 | 18 | 20
4 | 9 | 640 | Cc1ccc(C2CN(C)Cc3sc(Br)cc32)cc1.Cl (stereo not drawn) [2-bromo-4-(p-tolyl)-6-methyl-4,5,6,7-tetrahydro thieno[2,3-c] pyridine hydrochloride] | 48 | 80 | 80 | 80
5 | 3.5 | 1000 | CN1Cc2sc(Cl)cc2C(c2ccc(Br)cc2)C1.Cl (stereo not drawn) [2-chloro-4-(4-bromophenyl)-6-methyl-4,5,6,7-tetrahydro-thieno[2,3-c] pyridine hydrochloride] | 50 | 3 | 4.2 | 38
6 | 80 | 560 | Cc1cc2c(s1)CN(C)CC2c1ccccc1.Cl (stereo not drawn) [2,6-dimethyl-4-phenyl-4,5,6,7-tetrahydro-thieno[2,3-c]pyridine hydrochloride] | 19 | 25 | 80 | 80
7 | 0.54 | 280 | Cc1cc2c(s1)CN(C)CC2c1ccc(Br)cc1.Cl (stereo not drawn) [2,6-Dimethyl-4-(p-bromophenyl)-4,5,6,7-tetrahydro-thieno[2,3-c]pyridine hydrochloride] | 1.7 | 2.7 | 4.6 | 80
8 | 4.1 | 1600 | CN1Cc2sc(Br)cc2C(c2ccc(Br)cc2)C1 (stereo not drawn) [2-bromo-4-(p-bromophenyl)-6-methyl-4,5,6,7-tetrahydro-thieno[2,3-c]pyridine] | 55 | 7.5 | 32 | 100

Source: patent US4322423A, “4-Phenyl-4,5,6,7-tetrahydro-thieno(2,3-C)pyridines and salts thereof” (Boehringer Ingelheim GmbH, priority 1977, dated 1982)
